Measurements: PubChem BioAssay (NCI)
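A five-concentration, 48-hour dose response in 96-well plates underlies each endpoint, interpolated linearly between surrounding concentrations. GI50: concentration for 50% inhibition of growth. TGI: concentration producing complete growth inhibition.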

Columns and labels:
Assay in all cases: DTP human tumour cell line panel, 48 h
COLO 205 colon = system: COLO 205 colon
HS 578T breast = system: HS 578T breast
MDA-MB-435 = system: MDA-MB-435
NCI/ADR-RES ovarian = system: NCI/ADR-RES ovarian
OVCAR-5 ovarian = system: OVCAR-5 ovarian
RXF 393 renal = system: RXF 393 renal
SF-539 CNS = system: SF-539 CNS
SK-MEL-28 melanoma = system: SK-MEL-28 melanoma
SK-MEL-5 melanoma = system: SK-MEL-5 melanoma
UACC-257 melanoma = system: UACC-257 melanoma

Row | SMILES | TGI (COLO 205 colon) | TGI (HS 578T breast) | TGI (MDA-MB-435) | TGI (NCI/ADR-RES ovarian) | TGI (OVCAR-5 ovarian) | TGI (RXF 393 renal) | TGI (SF-539 CNS) | TGI (SK-MEL-28 melanoma) | TGI (SK-MEL-5 melanoma) | TGI (UACC-257 melanoma) | GI50 (COLO 205 colon) | GI50 (HS 578T breast) | GI50 (MDA-MB-435) | GI50 (NCI/ADR-RES ovarian) | GI50 (OVCAR-5 ovarian) | GI50 (RXF 393 renal) | GI50 (SF-539 CNS) | GI50 (SK-MEL-28 melanoma) | GI50 (SK-MEL-5 melanoma) | GI50 (UACC-257 melanoma)
1 | CCOc1nc(N)nc(C)c1N=Nc1ccc(Cl)cc1 | > 100 µM | 38.4 µM | > 100 µM | > 100 µM | > 100 µM | > 100 µM | > 100 µM | > 100 µM | > 100 µM | > 100 µM |  |  |  |  |  |  |  |  |  | 
2 | COc1ccc2cc(-c3c(-c4ccncc4)nc(-c4ccc(S(C)=O)cc4)n3C)ccc2c1 (stereo not given) | > 25 µM | > 25 µM | > 25 µM | > 25 µM | > 25 µM | > 25 µM | > 25 µM | > 25 µM | > 21.2 µM | > 25 µM | 17 µM | 13.8 µM | 14.6 µM | > 22.9 µM | > 25 µM | 2.78 µM | > 25 µM | 24.2 µM | 5.58 µM | > 25 µM
3 | CCN(CCO)CC(C)Nc1ccc([N+](=O)[O-])c2sc3ccccc3c(=O)c12 (stereo not given) | 5.96 µM | 10.5 µM | 3.8 µM | 5.86 µM | 18.5 µM | 8 µM | 19.2 µM | 10.3 µM | 5.56 µM | 2.85 µM | 1.62 µM | 1.75 µM | 1.54 µM | 1.6 µM | 3.68 µM | 1.89 µM | 3.6 µM | 2.68 µM | 1.52 µM | 1.47 µM
4 | COC(=O)c1nc(-c2ccccc2)oc1S(=O)(=O)n1nc(C)cc1N | 3.92 µM | 90.2 µM | 25.3 µM | 57.6 µM | 28.8 µM | 24.7 µM | 27.7 µM | 29.9 µM | 29.7 µM | 39.7 µM | 2.11 µM | 25.8 µM | 11.4 µM | 22.5 µM | 13.8 µM | 11.9 µM | 14.4 µM | 14.7 µM | 15.5 µM | 18.6 µM
5 | CN(C)CC1CCCC1=O (stereo not given) | 1.84 µM | 56.2 µM | 8.77 µM | 55.7 µM | 12.5 µM | 6.63 µM | 14.8 µM | 6.48 µM | 6.71 µM | 3.5 µM |  |  |  |  |  |  |  |  |  | 
6 | CCCCn1c(=O)c2c(nc3n2CCCN3CCc2ccc(OCC(=O)NCCN(CC)CC)cc2)n(CCCC)c1=O | 7.38 µM | 11.2 µM | 11.1 µM | 27.9 µM | 18 µM | 6.76 µM | 7 µM | 2.04 µM | 1.65 µM | 2.16 µM | 1.78 µM | 1.76 µM | 5.08 µM | 5.42 µM | 7.58 µM | 1.65 µM | 1.87 µM | 0.98 µM | 0.864 µM | 1.02 µM
7 | N#CN1CC[C@H](C(=O)Nc2ncc(-c3ccncc3)s2)C1 | 0.045 µM | 4.66 µM | 5.52 µM | > 100 µM | > 77.3 µM | 0.242 µM | 0.164 µM | 9.19 µM | 5.58 µM | 6.91 µM | < 0.0141 µM | 0.0948 µM | < 0.0148 µM | < 0.0242 µM | 0.0576 µM | 0.0238 µM | < 0.016 µM | 0.0814 µM | 0.0925 µM | 0.605 µM
